Results on 17 molecules are retold here after patent publication US6498168B2, “Muscarinic antagonists” (Schering Corporation, priority 1995, dated 2002).

In data set [1] the target is T1, cloned human m4 muscarinic receptor (Homo sapiens, UniProt P08173).
T1 sequence (P08173 1-479): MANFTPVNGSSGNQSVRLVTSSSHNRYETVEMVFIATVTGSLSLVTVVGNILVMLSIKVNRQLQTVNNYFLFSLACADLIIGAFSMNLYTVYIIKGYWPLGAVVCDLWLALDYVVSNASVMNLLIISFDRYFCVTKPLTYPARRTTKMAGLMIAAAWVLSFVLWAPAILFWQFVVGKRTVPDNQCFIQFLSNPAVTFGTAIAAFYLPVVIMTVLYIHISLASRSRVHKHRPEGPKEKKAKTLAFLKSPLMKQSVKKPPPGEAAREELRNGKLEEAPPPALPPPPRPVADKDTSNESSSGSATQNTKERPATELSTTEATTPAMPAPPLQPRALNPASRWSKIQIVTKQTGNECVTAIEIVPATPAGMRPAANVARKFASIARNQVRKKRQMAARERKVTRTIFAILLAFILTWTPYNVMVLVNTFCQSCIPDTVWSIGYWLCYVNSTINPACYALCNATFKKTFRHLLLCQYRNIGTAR
Nature of the data set: Muscarinic binding activity, 3H-QNB, m4. As for the experimental part:
(§1) The compound of interest is tested for its ability to inhibit binding to the cloned human m1, m2, m3, and m4 muscarinic receptor subtypes. The sources of receptors in these studies were membranes from stably transfected CHO cell lines which were expressing each of the receptor subtypes. Following growth, the cells were pelleted and subsequently homogenized using a Polytron in 50 volumes cold 10 mM Na/K phosphate buffer, pH 7.4 (Buffer B). The homgenates were centrifuged at 40,000×g for 20 minutes at 4° C. The resulting supernatants were discarded and the pellets were resuspended in Buffer B at a final concentration of 20 mg wet tissue/ml. These membranes were stored at −80° C. until utilized in the binding assays described below.
(§2) Binding to the cloned human muscarinic receptors was performed using ^3H-quinuclidinyl benzilate (QNB) (Watson et al., 1986). Briefly, membranes (approximately 8, 20, and 14 μg of protein assay for the m1, m2, and m4 containing membranes, respectively) were incubated with ^3H-QNB (final concentration of 100-200 pM) and increasing concentrations of unlabeled drug in a final volume of 2 ml at 25° C. for 90 minutes. Non-specific binding was assayed in the presence of 1 μM atropine. The incubations were terminated by vacuum filtration over GF/B glass fiber filters using a Skatron filtration apparatus and the filters were washed with cold 10 mM Na/K phosphate butter, pH 7.4. Scintillation cocktail was added to the filters and the vials were incubated overnight. The bound radioligand was quantified in a liquid scintillation counter (50% efficiency). The resulting data were analyzed for IC50 values (i.e. the concentration of compound required to inhibit binding by 50%) using the EBDA computer program (McPherson, 1985). Affinity values (Ki) were then determined using the following formula (Cheng and Prusoff, 1973); [formula]

Data set [2] has as its target T2, cloned human m1 muscarinic receptor (Homo sapiens, UniProt P11229).
T2 sequence (P11229 1-460): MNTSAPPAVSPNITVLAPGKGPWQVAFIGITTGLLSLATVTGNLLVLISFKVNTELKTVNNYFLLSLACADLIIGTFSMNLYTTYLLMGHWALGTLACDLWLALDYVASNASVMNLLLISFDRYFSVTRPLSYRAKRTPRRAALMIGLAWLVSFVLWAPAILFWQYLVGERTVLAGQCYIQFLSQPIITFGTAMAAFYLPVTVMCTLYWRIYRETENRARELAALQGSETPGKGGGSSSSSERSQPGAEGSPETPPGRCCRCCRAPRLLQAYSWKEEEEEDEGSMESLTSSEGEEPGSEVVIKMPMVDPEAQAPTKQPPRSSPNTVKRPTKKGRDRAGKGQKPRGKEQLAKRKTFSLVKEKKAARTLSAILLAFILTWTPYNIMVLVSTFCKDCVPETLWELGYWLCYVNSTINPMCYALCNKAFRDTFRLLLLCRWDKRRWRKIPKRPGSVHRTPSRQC
Put plainly: Muscarinic binding activity, 3H-QNB, m1. As for the experimental part: as §1, §2
(§3) To determine the degree of selectivity of a compound for binding the m2 receptor, the Ki value for m1 receptors was divided by the Ki value for m2 receptors. A higher ratio indicates a greater selectivity for binding the m2 muscarinic receptor.

The target in data set [3] is T3, cloned human m2 muscarinic receptor (Homo sapiens, UniProt P08172).
T3 sequence (P08172 1-466): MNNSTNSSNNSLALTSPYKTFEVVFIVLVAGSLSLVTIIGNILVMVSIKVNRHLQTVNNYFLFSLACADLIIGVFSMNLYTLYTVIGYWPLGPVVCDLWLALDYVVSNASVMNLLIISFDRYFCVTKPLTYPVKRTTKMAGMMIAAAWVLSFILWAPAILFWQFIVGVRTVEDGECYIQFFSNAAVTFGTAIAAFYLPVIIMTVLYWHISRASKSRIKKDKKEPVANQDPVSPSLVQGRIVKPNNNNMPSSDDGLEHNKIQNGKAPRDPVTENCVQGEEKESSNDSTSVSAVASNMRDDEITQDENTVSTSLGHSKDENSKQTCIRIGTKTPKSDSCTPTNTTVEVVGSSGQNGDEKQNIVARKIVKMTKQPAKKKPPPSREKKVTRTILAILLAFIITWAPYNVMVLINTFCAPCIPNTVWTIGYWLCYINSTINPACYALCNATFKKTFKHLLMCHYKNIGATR
Nature of the data set: Muscarinic binding activity, 3H-QNB, m2. As for the experimental part:
as §1, §2, §3

Data set [4] has as its system ACh release from striatum. The class given is in vivo, rat. To be noted: striatum of conscious rat, Tacrine 3 mg/kg i.p. (FIG. 3). The method, then: Surgery: For these studies, male Sprague-Dawley Rats (250-350 g) were anesthetized with sodium pentobarbital (54 mg/kg, ip) and placed on a Kopf sterotaxic apparatus. The skull was exposed and drilled through to the dura at a point 0.2 mm anterior and 3.0 mm lateral to the bregma. At these coordinates, a guide cannula was positioned at the outer edge of the dura through the drilled opening, lowered perpendicularly to a depth of 2.5 mm, and permanently secured with dental cement to bone screws. Following the surgery, rats were given ampicillin (40 mg/kg, ip) and individually housed in modified cages. A recovery period of approximately 3 to 7 days was allowed before the microdialysis procedure was undertaken.
Microdialysis: All of the equipment and instrumentation used to conduct in vivo microdialysis was obtained from Bioanalytical Systems, Inc. (BAS). The microdialysis procedure involved the insertion through the guide cannula of a thin, needle-like perfusable probe (CMA/12,3 mm×0.5 mm) to a depth of 3 mm in striatum beyond the end of the guide. The probe was connected beforehand with tubing to a microinjection pump (CMA-/100). Rats were collared, tethered, and, following probe insertion, were placed in a large, clear, plexiglass bowl with litter material and access to food and water. The probe was perfused at 2 μl/min with Ringer's buffer (NaCl 147 mM; KCl 3.0 mM; CaCl2 1.2 mM; MgCl2 1.0 mM) containing 5.5 mM glucose, 0.2 mM L-ascorbate, and 1 μM neostigmine bromide at pH 7.4). To achieve stable baseline readings, microdialysis was allowed to proceed for 90 minutes prior to the collection of fractions. Fractions (20 μl) were obtained at 10 minute intervals over a 3 hour period using a refrigerated collector (CMA170 or 200). Four to five baseline fractions were collected, following which the drug or combination of drugs to be tested was administered to the animal. Upon completion of the collection, each rat was autopsied to determine accuracy of probe placement.
Acetylcholine (ACh) analysis: The concentration of ACh in collected samples of microdialysate was determined using HPLC/electrochemical detection. Samples were auto-injected (Waters 712 Refrigerated Sample Processor) onto a polymeric analytical HPLC column (BAS, MF-6150) and eluted with 50 mM Na2HPO4, pH 8.5. To prevent bacterial growth, Kathon CG reagent (0.005%) (BAS) was included in the mobile phase. Eluent from the analytical column, containing separated ACh and choline, was then immediately passed through an immobilized enzyme reactor cartridge (BAS, MF-6151) coupled to the column outlet. The reactor contained both acetylcholinesterase and choline oxidase covalently bound to a polymeric backbone. […] Data acquisition was carried out using an IBM Model 70 computer equipped with a microchannel IEEE board. Integration and quantification of peaks were accomplished using “Maxima” chromatography software (Waters Corporation). Total run time per sample was 11 minutes at a flow rate of 1 ml/min. Retention times for acetylcholine and choline were 6.5 and 7.8 minutes, respectively. To monitor and correct for possible changes in detector sensitivity during chromatography, ACh standards were included at the beginning, middle and end of each sample queue.
Increases in ACh levels are consistent with presynaptic m2 receptor antagonism.

Where [5] appears, read: range given for the named group of compounds, read-out: Ki, nM, m4.
The mark [6] stands for this setting: range given for the named group of compounds, read-out: Ki, nM, m1.
[7] abbreviates: range given for the named group of compounds, read-out: Ki, nM, m2.

Structures are written as SMILES. Structures can show the parent of a compound that is named as a salt. Where two headings read alike, the source gives them in different places.

Consider `CC1CN(C2CCCCC2)CCN1C(C)c1ccc(Oc2ncccn2)cc1` (stereo not shown) [Compound 269], for which the inhibition constant Ki (usually a dissociation constant, usually derived from enzyme kinetics or from competition with a known ligand) in data set [1] (setting [5]) is 0.33 to 36 nM; in data set [2] (setting [6]), 2.1 to 224 nM; in data set [3] (setting [7]), 0.05 to 16.6 nM.

For `C=C(c1ccc([S+]([O-])c2ccc(OC)cc2)cc1)C1CCN(C2CCCCC2)CC1` (stereo not shown) [Compound 304], the Ki in data set [1] (setting [5]) is 0.33 to 36 nM; in data set [2] (setting [6]), 2.1 to 224 nM; in data set [3] (setting [7]), 0.05 to 16.6 nM.

With `C=C(c1ccc(S(=O)(=O)c2ccc(OC)cc2)cc1)C1CCN(C2CCN(C(=O)OCC)CC2)CC1` [Compound 760], the Ki in data set [3] (setting [7]) is 0.03 to 0.48 nM.

As to `CC(C)C(c1ccc(Oc2ncccn2)cc1)N1CCN(C2CCCCC2)CC1` (stereo not shown) [Compound 232], the Ki in data set [1] fell in the range of 0.33 to 36 nM; in data set [2] it was 2.1 to 224 nM; in data set [3], 0.05 to 16.6 nM.

Regarding `c1cnc(Oc2ccc(C(C3CCCCC3)N3CCN(C4CCCCC4)CC3)cc2)nc1` (single isomer, unassigned) [227(−)], the figures for the Ki in data set [1] (setting [5]), in data set [2] (setting [6]) and in data set [3] (setting [7]) were 0.33 to 36 nM, 2.1 to 224 nM and 0.05 to 16.6 nM, respectively.

For `C=C(c1ccc(Sc2ccc(OC)cc2)cc1)C1CCN(C2CCCCC2)CC1` (as salt: hydrochloride) [Compound 302], the melting point (commonly the temperature of the solid-liquid transition) fell in the range of 227 to 230 °C.

`C=C(c1ccc([S+]([O-])c2ccc(OC)cc2)cc1)C1CCN(C2CCCCC2)CC1` (single isomer, unassigned) [Compound 301]: the melting point was 141 to 142 °C.

`O=C(O)/C=C\C(=O)O.c1ccc(Oc2ccc(C3(N4CCN(C5CCCCC5)CC4)CCSCC3)cc2)cc1`: the melting point is 137 to 139 °C.

`COc1ccc(S(=O)(=O)c2ccc([C@@H](C)N3CCN(C4CCCCC4)C[C@H]3C)cc2)cc1` [Compound 667]: the melting point was 241 to 242 °C. Further, the Ki in data set [3] (setting [7]) lay within 0.03 to 0.48 nM.

For the molecule `COC(=O)C(c1ccc(S(=O)(=O)c2ccc(OC)cc2)cc1)N1CCN(C2CCCCC2)CC1` (stereo not shown) [Compound 214], the Ki lay in the range of 0.33 to 36 nM in data set [1] (setting [5]), 2.1 to 224 nM in data set [2] (setting [6]) and 0.05 to 16.6 nM in data set [3] (setting [7]).

For `Nc1c2c(nc3ccccc13)CCCC2` [Tacrine, reference compound], in data set [4], the “Peak ACh release as % increase over Baseline” value is 30 (FIG. 3) %.

`COc1ccc(S(=O)(=O)c2ccc([C@H](C)N3CCN(C4CCCCC4)C[C@H]3C)cc2)cc1` [Compound 656] yielded a melting point of 227 to 230 °C. The Ki in data set [3] (setting [7]) was 0.03 to 0.48 nM.

On to `C=C(c1ccc(Sc2ccc(OC)cc2)cc1)C1CCN(C2CCCCC2)CC1` [Compound 302], for which the Ki in data set [1] (setting [5]) lay within 0.33 to 36 nM; in data set [2] (setting [6]) it was 2.1 to 224 nM; in data set [3] (setting [7]) it was 0.05 to 16.6 nM.

Turning to `COC(=O)C(C)(c1ccc([S+]([O-])c2ccc(OC)cc2)cc1)N1CCN(C2CCCCC2)CC1` (stereo not shown) [Compound 296], the Ki in data set [1] (setting [5]) fell in the range of 0.33 to 36 nM; in data set [2] (setting [6]), 2.1 to 224 nM; in data set [3] (setting [7]) it was 0.05 to 16.6 nM.

Turning to `COc1ccc([S+]([O-])c2ccc(C(C)(C#N)N3CCN(C4CCCCC4)CC3)cc2)cc1` (stereo not shown) [Compound 289], the Ki was in the range of 0.33 to 36 nM in data set [1] (setting [5]), 2.1 to 224 nM in data set [2] (setting [6]) and 0.05 to 16.6 nM in data set [3] (setting [7]).

Turning to `C=C(c1ccc([S+]([O-])c2ccc(OC)cc2)cc1)C1CCN(C2CCCCC2)CC1` (single isomer, unassigned) [Compound 300], the Ki in data set [1] (setting [5]) was 0.33 to 36 nM; in data set [2] (setting [6]) it was 2.1 to 224 nM; in data set [3] (setting [7]), 0.05 to 16.6 nM.

`COc1ccc([S+]([O-])c2ccc(C(=O)C3CCN(C4CCCCC4)CC3)cc2)cc1` (stereo not shown) [Compound 305] showed a melting point of 125 °C. The Ki in data set [1] (setting [5]) lay in the range of 0.33 to 36 nM. For the same molecule, in data set [2] (setting [6]), the Ki was 2.1 to 224 nM. Besides, the Ki in data set [3] (setting [7]) lay in the range of 0.05 to 16.6 nM.
